From publication PMC11641755, “Features of Highly Homologous T-Cell Receptor Repertoire in the Immune Response to Mutations in Immunogenic Epitopes” (International Journal of Molecular Sciences, 2024)

Legend:
[1] = tested on: TCR NYN-2 (Jurkat E6-1 TPR cells); format: cell-based, human
[2] = tested on: TCR NYN-3 (Jurkat E6-1 TPR cells); format: cell-based, human
[3] = tested on: NYN peptide-specific TCRs (NYN-1 to NYN-4 Jurkat E6-1 TPR cell lines); format: cell-based, human
[4] = tested on: TCR NYN-1 (Jurkat E6-1 TPR cells); format: cell-based, human
[5] = tested on: TCR NYN-4 (Jurkat E6-1 TPR cells); assay: Jurkat E6-1 TPR NFAT-eGFP reporter activation, transgenic TCR NYN-4, peptide-loaded K562-A*24:02; format: cell-based, human
TCR^NYN-I = conditions: ref 20 (Deng et al.); cited from earlier work
TCR^NYN-II = conditions: ref 20 (Deng et al.); cited from earlier work

NYDYLYRLF [N450D]
effect of the mutation on response / affinity of NYN-2 (in words) [1]: increased the affinity | effect of the mutation on response / affinity of NYN-3 (in words) [2]: increased the affinity | effect of the mutation on the T-cell response / recognition (in words) [3]: did not affect the T-cell response

NYKYLYRLF [N450K]
effect of the mutation on response / affinity of NYN-1 (in words) [4]: remained preserved | reduction in the recognition compared to wild-type NYN ([5]; TCR NYN-4, from EC50 values): up to 400 fold | recognition / response of TCR^NYN-I (in words) (TCR^NYN-I): remained preserved | recognition / response of TCR^NYN-II (in words) (TCR^NYN-II): remained preserved

NYNYLYRFF [L455F]
reduction in the recognition compared to wild-type NYN ([1]; TCR NYN-2, from EC50 values): 23 fold | effect of the mutation on the T-cell response / recognition (in words) [3]: did not affect the T-cell response

NYNYLYRLL [F456L]
effect of the mutation on the T-cell response / recognition (in words) [3]: did not affect the T-cell response

NYNYMYRLF [L452M]
effect of the mutation on the T-cell response / recognition (in words) [3]: did not affect the T-cell response

VYFLQSINF
GFP expression compared to NYN ([4]; NYN-1 cell line, K562 loaded with 0.8 μM peptide): the same level of GFP expression as NYN | GFP expression compared to NYN ([1]; NYN-2 cell line, K562 loaded with 0.8 μM peptide): the same level of GFP expression as NYN | GFP expression compared to NYN ([2]; NYN-3 cell line, K562 loaded with 0.8 μM peptide): 1.5 times lower | GFP expression compared to NYN ([5]; NYN-4 cell line, K562 loaded with 0.8 μM peptide): 1.5 times lower | recognition by all NYN-specific TCRs (cross-reactivity) ([3]; K562 loaded with 0.8 μM of each epitope): recognized
